This is an account of results in US20170105947A1, “Appetite Suppressant Composition” (priority 2015, published 2017).

Each structure is given as a SMILES string. “Also recorded” adds a separate entry of the source.

For data set [1] the following is noted: in vivo; cited from earlier work.
The next data set relates to rat intestinal cells. The note with it: added to rat intestinal cells / lumen of the intestine; cited from earlier work.
The test system of another data set is gastric emptying. The settings on record: oral administration of 50-100 mg/kg, rats; cited from earlier work.
The conditions of data set [2]: 13 wk, rat, cited from earlier work.
The next data set in a line: food preference of dogs. Format: in vivo. The settings on record: food containing 2,500 ppm vs untreated control.
For data set [3] the following is noted: rats vs human intake of about 350 ug/kg/day; cited from earlier work.

Source text for food preference of dogs: During this experience non-encapsulated trans-2-hexenal in combination with other chemicals were applied to feed.

As for `CCCCCCCCCCC[C@@H](C[C@@H]1OC(=O)[C@H]1CCCCCC)OC(=O)[C@H](CC(C)C)NC=O` [Orlistat, tetrahydrolipstatin], the known side effects result in data set [1] is “steatorrhea, fecal incontinence, frequent bowel movements and urgency, compromised absorption of fat-soluble vitamins and nutrients, increased appetite and diminished effectiveness over time”.
For `CCCCC/C=C/C=C/C=O` [trans, trans-2,4-decadienal], the “level of CCK in vitro” value with rat intestinal cells is given as “increased the level of CCK”. The gastric emptying entry with gastric emptying is “reduced gastric emptying”.
On to `CCC/C=C/C=O` [trans-2-hexenal], for which, in data set [2] (4000 ppm in diet), the “body weight and intake” value is reported as “no significant reduction; also recorded: did not significantly affect feed intake or body weight”. The “changes in hematological parameters or organ weights” value in data set [2] (dietary levels 0, 260, 640, 1600 or 4000 ppm) is “did not induce any changes”. Moreover, the food preference entry in the data set “food preference of dogs” is listed as “dogs preferred the untreated control”. Also, in data set [3], the “toxic levels in rats relative to normal intake by humans” value is recorded as 30 times.
